The target of the experiment is T1, human lck SH2 domain (Homo sapiens, UniProt P06239).
T1 construct: Cloning and expression of human lck SH2 domain containing tags and an enterokinase proteolytic cleavage site; made in house; host or cells: E. coli AR120
As to the kind of experiment: SH2 domain / pY peptide binding assay (ELISA-based, 96 well plate), lck SH2. Particulars: Ki calculated from IC50 by the expanded equation; Table II. As for the experimental part:
The inhibitory activity of compounds at the different human SH2 domains was determined in vitro using SH2 domains expressed as fusion proteins in E. coli. The SH2 domains used herein were the human forms of the src SH2 domain, Grb2 SH2 domain, lck SH2 domain, fyn SH2 domain, SH-PTP2 SH2 domain, p85 SH2 domain and hcp SH2 domain.
The fusion proteins containing the src, lck and hcp SH2 domains were expressed as the general sequence: DET1-DET2-spacer-ek-SH2, where DETI, DET2, spacer, ek and SH2 are as described below. DET1 ("defined epitope tag 1") (SEQ ID NO: 1) is an 11 amino acid sequence found in the Human Immunodeficiency Virus Type 1 (HIV-1) envelope protein gp120 (or gp160). Monoclonal antibodies to various epitopes of HIV-1 gp120 (or gp160) are known in the art, see, for example U.S. Patent 5,166,050. One preferred example is monoclonal antibody 178.1 (see, e.g., Thiriart et al., J. Immunol., 143:1832-1836 (1989)), which was prepared by immunization of mice with a yeast-expressed HIV-1 gp160 molecule from strain BH10 (Ratner et al., Nature, 313:277-284 (1985)). This tag was used for detection of expression (by Western blot), for purification of the protein (by affinity chromatography), and for configuring assays in which the fusion protein was captured or immobilized using the 178.1 antibody. DET2 is a hexahistidine sequence tag (SEQ ID NO: 2) which binds to nickel-containing resins and was used for purification purposes. Spacer (SEQ ID NO: 3) was utilized to design a BamH1 restriction site at the indicated position of the construct. The term -ekrefers to a recognition sequence (SEQ ID NO: 4) for the enterokinase protease which provides for the optional removal of the tags from the SH2 domain, thus producing an SH2 domain that contains no extraneous amino acids. SH2 domains which contain no extraneous amino acids are preferable to tagged protein for crystallography studies. SH2 refers to the SH2 domains of different proteins.
Cloning and expression of human lck SH2 domain containing tags and an enterokinase proteolytic cleavage site (DET1-DET2-spacer-ek-lck SH2).
A DNA sequence encoding protein ek-lck SH2 was PCR amplified from a cDNA clone containing the human lck gene (Genbank accession number M36881) using the following primers: [formula]
The PCR product was digested with BamHI and XbaI, followed by isolation of the digested fragment on an agarose gel. The fragment was ligated into BamHI-XbaI-digested expression vector containing the tagged chicken src gene DET1-DET2-spacer-SH2 described in Procedure 1 above. In that vector, the BamHI site is located in between the coding regions for DET2 and SH2, and the XbaI site is located after the 3' end of the SH2 coding region. Thus, the ek-lck SH2 sequence replaced the src SH2 sequence in the above vector. The ligation reaction was used to transform E. coli MM294cI^+. The construct containing […] was confirmed by DNA sequencing (SEQ ID NO: 6) and induced in E. coli strain AR120 as described in Procedure 1 above. A Coomassie-Blue-stained, Western-blot-positive induced protein band with an apparent molecular weight of 17,000 was observed after nalidixic acid induction.
Cells were lysed at neutral pH by sonication in the presance of lysozyme. After centrifugation, the soluble extract was chromatographed on a Ni^++NTA column. After washing the column with equilibration buffer (Tris buffer pH 8 containing 0.5 M NaCl) and the same buffer containing 15 mM imidazole, the protein was eluted in highly purified form with 25 mM imidazole in equilibration buffer.
The binding assays for the SH2 domains and pY peptides were performed in an ELISA-based 96 well plate assay. In Millipore 96 well filter plates, hydrophilic Durapore® (pore size 0.65um Cat. No. MADVN6550), was added 2 ul (50% suspension) of Protein-G Sepharose (available from Pharmacia of N.J. Cat. No. 17-0618-01) and either 2 ul of 2 mg/ml of MAB178. […]

SMILES strings stand for the structures.

T1 sequence (P06239 127-224 limits assumed): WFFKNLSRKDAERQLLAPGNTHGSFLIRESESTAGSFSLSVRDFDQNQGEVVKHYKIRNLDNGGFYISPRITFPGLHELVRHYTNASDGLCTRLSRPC

As usually defined, the Ki is a measure of affinity in units of concentration, obtained from inhibition or displacement. On to `CCCCCCNC(=O)[C@H]1CC[C@H](CNC(=O)c2ccc(C(=O)c3ccc(C(=O)O)cc3)cc2)CC1` [Compound 6, 4-carboxy-benzophenone-4-carboxamido-trans-4-methyl-cyclohexyl-N-hexyl carboxamide], for which the inhibition constant (Ki) is 50 µM.
